Measured values as given in patent US8226943B2, “Antibodies to notch receptors” (OncoMed Pharmaceuticals, Inc., priority 2008, dated 2012).
Values belong to the substance of their own block, whether it stands above or below them.

Experiments:
[1] = molecular target: T1, human Notch2 (Homo sapiens, UniProt Q04721); test: FACS binding to human Notch2 on stably transfected HEK-293 cells; design: expressed in transfected cells; host or cells: HEK-293, stably transfected; conditions: HEK-293 stably overexpressing human Notch2
Experimental: A particular Fab (59R1) was identified that bound the human Notch2 receptor and blocked binding of Jagged1 to human Notch2. Binding of the 59R1 Fab to human Notch2 was verified by FACS assay using a stable human cell line HEK-293 which overexpressed human Notch2 (hN2) (FIG. 1A). Fab binding was detected by phycoerythrin (PE)-conjugated goat anti-human Fab (Jackson Immunochemicals). […] Ligand binding and blocking was determined by incubating hJagged 1 extracellular domain (ECD) fused to human Fc constant region with the cells and Fabs selected from the phage library and using PE-conjugated goat anti-human Fc gamma specific antibodies (Jackson Immunochemicals) for detection.
In addition, the 59R1 IgG2 antibody was assayed for its ability to block binding of DLL4 to the human Notch 2 receptor by FACS analysis. HEK-293 cells stably overexpressing human Notch2 were incubated with the antibody at various concentration and then detected for hNotch2 binding (FIG. 1C) by PE-conjugated goat anti-human Fc gamma specific antibody, or ligand blocking activity (FIG. 1D). Ligand blocking was determined by incubating the cells with human DLL4 ECD tagged with the rabbit Fc constant region and the 59R1 antibody at a range of concentrations, and then detecting the hDLL4 by PE-conjugated donkey anti-rabbit antibody. […]

[2] = test system: PN4 pancreatic tumor cells; test: PN4 pancreatic tumor xenograft growth; type: in vivo, NOD/SCID mice
Experimental: In another experiment, anti-Notch2/3 antibodies were tested for an effect on pancreatic tumor growth. NOD/SCID mice were injected with 30,000 PN4 pancreatic tumor cells sub-cu in the right flank, and tumors were allowed to grow until they had reached an average volume of 100 mm^3. Animals were randomized and dosing of anti-Notch2/3 antibody 59R1 or control antibody 1B711 was initiated. Antibodies were dosed at 15 mg/kg given once per week.
PN4 pancreatic tumor cells (50,000 cells per mouse) were injected subcutaneously into the flank region of Nod-Scid mice. Tumors were allowed to grow for 27 days until they had reached an average volume of ˜120 mm^3. Animals were randomized into four treatment groups (n=10/group) and treatments were initiated. One group received a control antibody (1B711) at 10 mg/kg twice per week; one group received gemcitabine at 40 mg/kg once per week plus the control antibody at 10 mg/kg twice per week; one group received 59R1 at 10 mg/kg twice per week, and the fourth group received the combination of 59R1 at 10 mg/kg twice per week and gemcitabine 40 mg/kg once per week. Tumor volumes were measured on the indicated days.

[3] = test system: stroma of PE13 tumors; test: Microarray gene expression in stroma of treated xenograft tumors, PE13; type: in vivo, mice; conditions: 59R1 vs control
[4] = test system: stroma of Colo205 tumors; test: Microarray gene expression in stroma of treated xenograft tumors, Colo205; type: in vivo, mice; conditions: 59R1 vs control
Experimental: Gene expression levels in various xenograft tumor models treated with the 59R1 IgG2 antibody were analyzed by microarray analysis. Global gene expression profiling analysis was performed on Affymetrix HG-U133 plus 2.0 microarray (Affymetrix, Santa Clara, Calif.). Three independent RNA samples of xenograft whole tumors from the control and treatment groups were isolated and hybridized to the microarrays according to the manufacturer's instructions. Scanned array background adjustment and signal intensity normalization were performed with GCRMA algorithm in the open-source bioconductor software (www.bioconductor.org). The expression level of each gene was normalized by z-score transformation across the samples in the control (CTRL) and treatment (59R1) groups.

[5] = test system: stroma of B44 tumors; test: Microarray gene expression in stroma of treated xenograft tumors, B44; type: in vivo, mice; conditions: 59R1 vs control
Experimental: Gene expression levels in various xenograft tumor models treated with the 59R1 IgG2 antibody were analyzed by microarray analysis. […] […] Scanned array background adjustment and signal intensity normalization were performed with GCRMA algorithm in the open-source bioconductor software (www.bioconductor.org). The expression level of each gene was normalized by z-score transformation across the samples in the control (CTRL) and treatment (59R1) groups.

[6] = molecular target: T1, human Notch2; test: DLL4-Fc induced receptor activation in transfected PC3 cells, human Notch2; type: cell-based; design: expressed in transfected cells; conditions: immobilized DLL4-Fc
Experimental: (§1) 59R5 was determined to have similar activity in blocking Notch2 and Notch3 signaling as 59R1. Receptor activation was determined in luciferase-based assays. PC3 tumor cells were transiently transfected with a human or mouse Notch receptor (human Notch2, murine Notch2, human Notch3, or murine Notch3) and […] inducible reporter construct. Transfected cells were incubated with different concentrations of 59R1 or 59R5 antibody in the presence of passively immobilized DLL4-Fc protein. Notch receptor activation was determined by measuring luciferase activity.

[7] = molecular target: human Notch3 (Homo sapiens, UniProt Q9UM47); test: DLL4-Fc induced receptor activation in transfected PC3 cells, human Notch3; type: cell-based; design: expressed in transfected cells; host or cells: PC3 tumor cells, transient; conditions: immobilized DLL4-Fc
Experimental: as §1

T1 sequence (Q04721 26-2471): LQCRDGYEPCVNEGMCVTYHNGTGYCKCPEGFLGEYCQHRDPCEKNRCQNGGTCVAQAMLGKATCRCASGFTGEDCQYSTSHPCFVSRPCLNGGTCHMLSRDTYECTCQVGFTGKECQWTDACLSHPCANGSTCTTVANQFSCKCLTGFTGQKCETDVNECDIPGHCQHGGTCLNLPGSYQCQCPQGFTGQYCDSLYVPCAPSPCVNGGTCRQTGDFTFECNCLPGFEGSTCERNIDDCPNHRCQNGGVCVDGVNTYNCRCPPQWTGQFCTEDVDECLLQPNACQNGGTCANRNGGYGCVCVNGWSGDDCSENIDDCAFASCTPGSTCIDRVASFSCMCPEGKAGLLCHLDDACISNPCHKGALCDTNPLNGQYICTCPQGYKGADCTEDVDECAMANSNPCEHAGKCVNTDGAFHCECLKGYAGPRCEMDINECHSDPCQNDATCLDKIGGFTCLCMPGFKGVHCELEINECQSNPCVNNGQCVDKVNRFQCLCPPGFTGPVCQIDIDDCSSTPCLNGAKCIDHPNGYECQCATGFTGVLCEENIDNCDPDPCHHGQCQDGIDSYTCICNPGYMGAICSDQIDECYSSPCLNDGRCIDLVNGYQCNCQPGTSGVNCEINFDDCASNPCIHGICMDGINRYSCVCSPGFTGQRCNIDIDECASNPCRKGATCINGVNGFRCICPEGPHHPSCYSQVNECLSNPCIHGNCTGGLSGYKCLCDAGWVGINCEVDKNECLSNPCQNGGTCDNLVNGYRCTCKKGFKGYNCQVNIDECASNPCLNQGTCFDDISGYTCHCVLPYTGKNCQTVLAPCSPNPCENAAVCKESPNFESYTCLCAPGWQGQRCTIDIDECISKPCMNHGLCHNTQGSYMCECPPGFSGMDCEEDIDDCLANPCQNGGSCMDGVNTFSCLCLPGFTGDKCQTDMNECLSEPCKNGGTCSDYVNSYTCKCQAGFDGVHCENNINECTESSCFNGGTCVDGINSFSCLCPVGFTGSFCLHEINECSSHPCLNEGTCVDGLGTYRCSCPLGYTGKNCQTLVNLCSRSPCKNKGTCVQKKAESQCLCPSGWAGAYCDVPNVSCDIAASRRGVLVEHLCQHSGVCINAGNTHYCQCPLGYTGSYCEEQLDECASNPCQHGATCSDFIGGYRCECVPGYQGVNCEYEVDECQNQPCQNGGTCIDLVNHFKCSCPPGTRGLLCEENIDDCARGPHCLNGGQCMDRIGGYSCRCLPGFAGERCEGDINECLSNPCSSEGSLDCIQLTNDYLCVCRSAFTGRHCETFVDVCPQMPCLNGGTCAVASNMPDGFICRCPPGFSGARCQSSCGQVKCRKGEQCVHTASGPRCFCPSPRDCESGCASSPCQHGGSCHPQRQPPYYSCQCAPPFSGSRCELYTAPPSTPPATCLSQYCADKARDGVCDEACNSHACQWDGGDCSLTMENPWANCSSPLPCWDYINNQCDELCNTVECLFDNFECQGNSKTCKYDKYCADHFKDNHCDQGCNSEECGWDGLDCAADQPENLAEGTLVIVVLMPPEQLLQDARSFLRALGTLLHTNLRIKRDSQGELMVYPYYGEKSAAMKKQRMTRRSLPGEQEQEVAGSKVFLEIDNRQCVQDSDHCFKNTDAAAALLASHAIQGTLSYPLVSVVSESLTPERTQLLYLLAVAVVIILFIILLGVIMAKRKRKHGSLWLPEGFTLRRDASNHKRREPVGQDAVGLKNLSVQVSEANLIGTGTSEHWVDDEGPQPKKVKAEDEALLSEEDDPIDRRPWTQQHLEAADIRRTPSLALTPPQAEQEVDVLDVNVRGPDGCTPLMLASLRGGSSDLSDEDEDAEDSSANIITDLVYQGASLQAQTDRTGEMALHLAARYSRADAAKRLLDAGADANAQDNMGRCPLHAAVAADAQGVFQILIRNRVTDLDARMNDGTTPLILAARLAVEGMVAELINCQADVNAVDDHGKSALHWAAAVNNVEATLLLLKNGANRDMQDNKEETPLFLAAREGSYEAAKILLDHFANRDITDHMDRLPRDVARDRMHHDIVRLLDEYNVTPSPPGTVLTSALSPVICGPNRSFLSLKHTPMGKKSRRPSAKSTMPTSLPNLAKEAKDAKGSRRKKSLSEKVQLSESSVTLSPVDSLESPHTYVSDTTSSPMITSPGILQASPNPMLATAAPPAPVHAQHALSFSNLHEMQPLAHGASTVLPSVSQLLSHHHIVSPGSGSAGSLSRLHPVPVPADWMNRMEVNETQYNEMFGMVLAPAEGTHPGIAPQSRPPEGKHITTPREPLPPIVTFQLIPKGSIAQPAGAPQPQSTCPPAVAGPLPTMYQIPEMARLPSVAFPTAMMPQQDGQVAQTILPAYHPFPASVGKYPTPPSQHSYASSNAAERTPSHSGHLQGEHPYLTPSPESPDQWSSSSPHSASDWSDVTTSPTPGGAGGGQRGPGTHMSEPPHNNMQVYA
Chain of human Notch3 (Q9UM47 40-2321): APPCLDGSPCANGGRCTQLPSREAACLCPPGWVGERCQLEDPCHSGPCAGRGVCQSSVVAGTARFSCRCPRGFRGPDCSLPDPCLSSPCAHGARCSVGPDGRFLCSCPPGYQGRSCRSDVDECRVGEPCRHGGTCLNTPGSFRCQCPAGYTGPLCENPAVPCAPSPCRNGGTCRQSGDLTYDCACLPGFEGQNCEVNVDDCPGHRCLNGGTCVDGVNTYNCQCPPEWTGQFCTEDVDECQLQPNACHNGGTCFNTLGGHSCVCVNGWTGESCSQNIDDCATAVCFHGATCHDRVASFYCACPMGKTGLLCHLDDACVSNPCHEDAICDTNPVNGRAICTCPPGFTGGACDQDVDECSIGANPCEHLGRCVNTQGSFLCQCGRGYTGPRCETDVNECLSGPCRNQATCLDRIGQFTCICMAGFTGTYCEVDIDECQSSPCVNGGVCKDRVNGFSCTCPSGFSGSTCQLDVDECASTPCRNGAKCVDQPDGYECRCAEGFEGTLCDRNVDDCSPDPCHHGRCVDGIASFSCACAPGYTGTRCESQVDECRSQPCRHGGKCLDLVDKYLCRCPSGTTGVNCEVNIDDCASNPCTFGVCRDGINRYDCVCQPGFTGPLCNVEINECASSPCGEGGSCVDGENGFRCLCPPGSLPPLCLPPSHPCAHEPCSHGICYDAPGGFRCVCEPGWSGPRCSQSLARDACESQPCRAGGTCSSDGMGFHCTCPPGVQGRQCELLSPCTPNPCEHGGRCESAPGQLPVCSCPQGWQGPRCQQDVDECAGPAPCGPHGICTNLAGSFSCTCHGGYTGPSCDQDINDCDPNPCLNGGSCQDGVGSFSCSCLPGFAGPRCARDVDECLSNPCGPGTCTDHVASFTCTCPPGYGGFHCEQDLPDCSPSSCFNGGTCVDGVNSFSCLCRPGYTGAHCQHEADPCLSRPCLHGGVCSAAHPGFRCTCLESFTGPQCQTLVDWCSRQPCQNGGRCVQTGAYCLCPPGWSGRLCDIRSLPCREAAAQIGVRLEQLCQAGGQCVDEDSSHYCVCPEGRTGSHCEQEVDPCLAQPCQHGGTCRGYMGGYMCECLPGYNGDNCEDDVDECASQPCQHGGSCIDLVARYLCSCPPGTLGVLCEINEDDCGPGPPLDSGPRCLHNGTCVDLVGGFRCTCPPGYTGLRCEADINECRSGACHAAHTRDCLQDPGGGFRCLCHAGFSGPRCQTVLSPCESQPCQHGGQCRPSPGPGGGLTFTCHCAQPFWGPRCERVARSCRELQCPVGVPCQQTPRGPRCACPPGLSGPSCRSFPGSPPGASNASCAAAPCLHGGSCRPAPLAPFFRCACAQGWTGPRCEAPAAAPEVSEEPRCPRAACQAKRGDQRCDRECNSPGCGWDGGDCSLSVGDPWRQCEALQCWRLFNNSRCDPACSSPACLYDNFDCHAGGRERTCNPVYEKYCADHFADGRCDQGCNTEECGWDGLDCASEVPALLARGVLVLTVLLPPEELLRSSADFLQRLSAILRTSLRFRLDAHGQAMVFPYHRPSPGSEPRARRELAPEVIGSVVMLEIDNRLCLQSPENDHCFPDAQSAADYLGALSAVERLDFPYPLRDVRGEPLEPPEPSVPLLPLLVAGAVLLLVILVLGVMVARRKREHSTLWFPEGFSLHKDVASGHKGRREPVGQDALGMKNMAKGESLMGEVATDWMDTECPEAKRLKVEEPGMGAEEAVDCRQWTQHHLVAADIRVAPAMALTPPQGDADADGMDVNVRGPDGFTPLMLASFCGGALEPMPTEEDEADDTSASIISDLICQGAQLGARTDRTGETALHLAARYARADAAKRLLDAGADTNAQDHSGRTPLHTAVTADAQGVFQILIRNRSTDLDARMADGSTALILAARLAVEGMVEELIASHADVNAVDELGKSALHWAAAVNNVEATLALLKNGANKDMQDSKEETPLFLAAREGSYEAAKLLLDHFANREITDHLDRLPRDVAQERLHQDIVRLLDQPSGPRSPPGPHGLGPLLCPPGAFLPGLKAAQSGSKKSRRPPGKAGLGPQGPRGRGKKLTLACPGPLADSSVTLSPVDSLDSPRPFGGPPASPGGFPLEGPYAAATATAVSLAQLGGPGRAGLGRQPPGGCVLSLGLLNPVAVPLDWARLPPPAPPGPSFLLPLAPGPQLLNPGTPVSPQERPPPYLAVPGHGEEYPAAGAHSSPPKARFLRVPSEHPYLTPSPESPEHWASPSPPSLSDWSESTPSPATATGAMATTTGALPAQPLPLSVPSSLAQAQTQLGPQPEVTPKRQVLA

binding to human Notch2 (FACS) [1]: confirmed
Substance: 59R1: human IgG2 antibody binding Notch2 and Notch3; heavy and light chain SEQ ID NO:16 and 18; ATCC PTA-9547
PN4 tumor growth, combination of 59R1 and gemcitabine ([2]; 59R1 10 mg/kg twice per week and gemcitabine 40 mg/kg once per week): inhibited
PN4 tumor growth compared to control ([2]; established tumors, 15 mg/kg once per week): significantly reduced
Fold 1416286_at (Rgs4) [3]: −1.83
Fold 1417466_at (Rgs5) [3]: −4.03
Fold 1417714_x_at (Hba-al/Hba-a2) [3]: −1.92
Fold 1418829_a_at (Eno2) [3]: 1.54
Fold 1419302_at (Heyl) [3]: −1.77
Fold 1420872_at (Gucy1b3) [3]: −3.06
Fold 1420941_at (Rgs5) [3]: −2.99
Fold 1420942_s_at (Rgs5) [3]: −4.23
Fold 1421964_at (Notch3) [3]: −1.91
Fold 1422789_at (Aldh1a2) [3]: −2.17
Fold 1428361_x_at (Hba-al/Hba-a2) [3]: −1.73
Fold 1434141_at (Gucy1a3) [3]: −4.18
Fold 1449280_at (Esm1) [3]: 1.56
Fold 1449632_s_at (Fkbp10) [3]: −1.63
Fold 1451501_a_at (Ghr) [3]: −1.66
Fold 1452590_a_at (Plac9) [3]: −1.62
Fold 1459713_s_at (Tmem16a) [3]: −7.28
Fold 1417466_at (Rgs5) [4]: −3.39
Fold 1417714_x_at (Hba-al/Hba-a2) [4]: −8.37
Fold 1420872_at (Gucy1b3) [4]: −1.94
Fold 1420942_s_at (Rgs5) [4]: −5.52
Fold 1421964_at (Notch3) [4]: −3.26
Fold 1434141_at (Gucy1a3) [4]: −2.49
Fold 1451501_a_at (Ghr) [4]: −1.83
Fold 1452590_a_at (Plac9) [4]: −1.61
Fold 1416286_at (Rgs4) [5]: −1.57
Fold 1417466_at (Rgs5) [5]: −2.22
Fold 1417714_x_at (Hba-al/Hba-a2) [5]: −2.56
Fold 1418829_a_at (Eno2) [5]: 1.71
Fold 1419302_at (Heyl) [5]: −1.12
Fold 1420872_at (Gucy1b3) [5]: −1.65
Fold 1420941_at (Rgs5) [5]: −2.09
Fold 1420942_s_at (Rgs5) [5]: −2.43
Fold 1421964_at (Notch3) [5]: −2.03
Fold 1422789_at (Aldh1a2) [5]: −4.92
Fold 1428361_x_at (Hba-al/Hba-a2) [5]: −2.42
Fold 1434141_at (Gucy1a3) [5]: −1.74
Fold 1449280_at (Esm1) [5]: 1.55
Fold 1449632_s_at (Fkbp10) [5]: −1.57
Fold 1451501_a_at (Ghr) [5]: −2.24
Fold 1452590_a_at (Plac9) [5]: −1.64
Fold 1459713_s_at (Tmem16a) [5]: −1.70

ligand-induced activation of human Notch2 receptor signaling [6]: blocked
ligand-induced activation of human Notch3 receptor signaling [7]: blocked
Substance: 59R5: human antibody that specifically binds human Notch 2 and human Notch 3; heavy and light chain SEQ ID NO:49 and 18; ATCC PTA-10170
